The target in the assay is Protease (Human immunodeficiency virus 1, UniProt Q9YQ12). Nature of the assay: Inhibition of recombinant HIV1 protease.

Where only a bound is given, the exact number is not on record here.

Sequence of Protease (Q9YQ12 whole entry): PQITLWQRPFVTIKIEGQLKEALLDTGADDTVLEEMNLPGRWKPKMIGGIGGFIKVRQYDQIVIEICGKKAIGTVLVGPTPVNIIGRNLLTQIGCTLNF

By IC50 is commonly meant the concentration needed to halve the response being measured. Regarding `CC(=O)OC[C@]12CC[C@H](O)C(C)(C)[C@@H]1CCC1=C2CC[C@]2(C)[C@@H]([C@H](C)C(O)C/C=C(/C)CO)CC[C@@]12C` (stereo partly drawn) [COLOSSOLACTONE A], the IC50 is 75.5 µM. As to `CC(=O)O[C@@H]1C[C@H]([C@H](C)[C@H]2CC=C(C)C(=O)O2)[C@@]2(C)CCC3=C(CC[C@@H]4C(=C3)C=CC(=O)OC4(C)C)[C@]12C` [COLOSSOLACTONE E], the IC50 is 15.3 µM. On to `CC(=O)O[C@@H]1C[C@H]([C@H](C)[C@H]2CC=C(C)C(=O)O2)[C@@]2(C)CCC3=C(CC[C@]4(O)C(=C3)C=CC(=O)OC4(C)C)[C@]12C` [COLOSSOLACTONE G], for which the IC50 is 9.28 µM.

With `CC(=O)O[C@@H]1C[C@H]([C@H](C)[C@@H]2OC(=O)C(C)=C[C@H]2O)[C@@]2(C)CCC3=C(CC[C@@H]4C(=C3)C=CC(=O)OC4(C)C)[C@]12C` [COLOSSOLACTONE VIII], the IC50 was 58.3 µM. In the case of `COC(=O)CC[C@]1(COC(C)=O)C2=C(CC[C@H]1C(C)(C)O)[C@]1(C)CC[C@H]([C@H](C)[C@H]3CC=C(C)C(=O)O3)[C@@]1(C)CC2` [COLOSSOLACTONE VII], the IC50 is 24.7 µM. Consider `COC(=O)CC[C@]1(COC(C)=O)C2=CC[C@]3(C)[C@@H]([C@H](C)[C@@H](C/C=C(/C)C(=O)O)OC(C)=O)CC[C@@]3(C)C2=CC[C@H]1C(C)(C)O` [COLOSSOLACTONE VI], for which the IC50 is over 162 µM. With `COC(=O)CC[C@]1(COC(C)=O)C2=C(CC[C@H]1C(C)(C)O)[C@]1(C)CC[C@H]([C@H](C)[C@@H](C/C=C(/C)C(=O)O)OC(C)=O)[C@@]1(C)CC2` [COLOSSOLACTONE V], the IC50 is 14.5 µM. As to `CC1=CC[C@H]([C@@H](C)[C@H]2CC[C@@]3(C)C4=C(C=C5C=CC(=O)OC(C)(C)[C@@H]5CC4)CC[C@]23C)OC1=O` [SCHISANLACTONE A], the IC50 is 10.8 µM.

For the origin of these results see ChEMBL document CHEMBL1157512, “Anti-HIV-1 protease activity of lanostane triterpenes from the vietnamese mushroom Ganoderma colossum” (J Nat Prod, 2008).
